# Test results reported in US10793520B2, “Sulfonylaminobenzamide compound and pest control agent” (Nippon Soda Co., Ltd., priority 2016, dated 2020).
# Tests used:
# Spodoptera litura = assay: Efficacy test against Spodoptera litura (cabbage leaf dip); format: in vivo; conditions: foliar, 144 h, cabbage leaves soaked 30 seconds, second-instar larvae, 6 days after larvae release, read-out: mortality rate against Spodoptera litura
# Experimental: (§1) Five parts of the compound of the present invention, 93.6 parts of dimethylformamide and 1.4 parts of a polyoxyethylene alkyl aryl ether were mixed together and dissolved to obtain an emulsion (1) containing 5% of the active constituent.
# The mortality rate was calculated using the following equation. Mortality rate (%)=(number of dead pests/number of test pests)×100
# The emulsion (1) was diluted with water to achieve a concentration of the compound of the present invention of 125 ppm. Cabbage leaves were soaked in the diluted liquid for 30 seconds. These cabbage leaves were then placed in a Petri dish, and five second-instar larvae of Spodoptera litura were released into the dish. The Petri dish was placed in a temperature-controlled room at a temperature of 25° C. and a humidity of 60%. Mortality was investigated 6 days after larvae release, and the mortality rate was calculated. The test was repeated.
# Meloidogyne incognita [1] = assay: Efficacy test against Meloidogyne incognita (in vitro test); conditions: 48 h, final concentration 50 ppm, second-instar larvae (L2), 2 days at 15° C., read-out: nematode mortality (still) rate against Meloidogyne incognita
# Experimental: (§2) Two hundred μL of a suspension containing about 50 second-instar larvae (L2) of Meloidogyne incognita was dispensed into each well of a 96-well microplate, and 0.2 μL of a 10,000 ppm dimethylsulfoxide solution of the compound of the present invention was injected into each well to achieve a final concentration of 50 ppm. Mortality was investigated after 2 days treatment at 15° C., and the nematode mortality rate was calculated. […] The test was repeated.
# Caenorhabditis elegans = assay: Efficacy test against Caenorhabditis elegans (in vitro test); conditions: 48 h, final concentration 50 ppm, mixed instars, 2 days at 25° C., read-out: nematode mortality rate against Caenorhabditis elegans
# Experimental: as §2, with “mixed instars” for “second-instar larvae (L2)”, “Caenorhabditis elegans” for “Meloidogyne incognita”, “25°” for “15°”
# Aedes aegypti = assay: Contact/ingestion efficacy test against Aedes aegypti larvae; format: in vivo; conditions: final concentration 12.5 μM, first-instar larvae, after 48 hours, 28° C., 80% RH, read-out: mortality rate against Aedes aegypti
# Experimental: A DMSO solution of the compound of the present invention was diluted with water to obtain a 125 μM dilute solution. Ten first-instar larvae of Aedes aegypti were placed in each well of a 96-well microtiter plate, the above dilute liquid was added in a ratio of 1/10, and a test was conducted at a final concentration of 12.5 μM. The samples were incubated in a temperature-controlled room (28° C., 80% RH), and after 48 hours of treatment with the compound, the mortality of the larvae was investigated. The test was repeated.
# Mythimna separata = assay: Efficacy test against Mythimna separata (treated artificial feed); conditions: in vivo
# Outline: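 Second-instar larvae (2 per area) were given artificial feed mixed with a 5% active-constituent emulsion in DMF with polyoxyethylene alkyl aryl ether. They were kept sealed at 25 °C. Mortality (dead/tested ×100) and feed consumption were scored on day 5, with a compound-free emulsion as control.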
# Ascaridia galli = assay: Efficacy test against Ascaridia galli (in vitro, L3 larvae, MEC); conditions: activity against at least one type of target parasitic worm: Ascaridia galli L3 or Oesophagostomum dentatum L3/L4
# Experimental: Using the gut-welling larval stages of two parasitic worms: namely, the third stage larvae (L3) of Ascaridia galli, and the third and fourth stage larvae (L3 and L4 respectively) of Oesophagostomum dentatum, the bioactivity of compounds of the present invention were investigated in vitro. When conducting these tests, DMSO solutions of the compounds of the present invention were prepared at various concentrations and incubated in the wells of a 96-well microtiter plate. Subsequently, 20 parasitic worm larvae were inoculated into each well. The bioactivity was determined by inspection under a microscope. The inspection under a microscope included evaluations of the mortality rate, injury, motility, development progression, and neutral red uptake by the larvae compared with a DMSO control.
# Dirofilaria immitis = assay: Efficacy test against Dirofilaria immitis (in vitro, Mf and L4); conditions: 10 μM, 72 hours, 37° C.
# Text: Using the microfilarial stage and the fourth stage larvae (Mf and L4 respectively) of Dirofilaria immitis, the bioactivity of compounds of the present invention were investigated in vitro. The Mf was collected from the blood of infected dogs, and 500 microfilariae were inoculated into each well of a 96-well microtiter plate. The L4 larvae was obtained by allowing L3 larvae collected from infected mosquitoes to undergo a single molt, and 10 of these L4 larvae were inoculated into each well. Subsequently, a 10 mM DMSO solution of the compound of the present invention was prepared at various concentrations and added to each well in a ratio of 1/1,000, and a test was then conducted at a final concentration of 10 μM. Incubation was performed at 37° C. in an environment containing 5% carbon dioxide, and 72 hours after treatment with the compound, the mortality and growth inhibition were determined. The test was repeated.
# Meloidogyne incognita [2] = assay: Efficacy test against Meloidogyne incognita (clubroot formation suppression test on cucumber); format: in vivo; conditions: 125 ppm, 1 ml irrigated on culture medium with cucumber seeds; 200 eggs; after 14 days; relative to untreated sample
# Experimental: as §1
# The emulsion (I) was diluted with water to achieve a concentration of the compound of the present invention of 125 ppm. A plastic container with a diameter of 5 cm was filled with 7 g of a culture medium, and cucumber seeds were planted. The culture medium was irrigated with 1 ml of the above dilute liquid, and then inoculated with 200 eggs of Meloidogyne incognita. The container was then placed in a temperature-controlled room at a temperature of 25° C. and a humidity of 60%, and after 14 days, the clubroot formation suppression ratio (%) relative to an untreated sample was calculated from the number of clubroots formed on the roots of the cucumber plants. The test was repeated. Clubroot formation suppression ratio (%)=(1−Nt/Nc)×100
# Nt: Total number of club roots formed in two treated samples after 14 days
# Nc: Total number of club roots formed in two untreated samples after 14 days
structure (smiles),measurement,setting,value
"O=C(Nc1ccc(C(F)(F)F)cc1)c1ccc(C(F)(F)F)cc1NS(=O)(=O)C(F)(F)F [a-9, 4-(trifluoromethyl)-N-[4-(trifluoromethyl)phenyl]-2-(trifluoromethylsulfonylamino)benzamide]",mortality at 125 ppm,Spodoptera litura,≥ 80%
same,mortality at 50 ppm,Meloidogyne incognita [1],≥ 80%
same,mortality at 50 ppm,Caenorhabditis elegans,≥ 80%
same,mortality at 12.5 µM,Aedes aegypti,≥ 80%
O=C(Nc1ccc(F)c(C(F)(F)F)c1)c1ccc(OC(F)(F)F)cc1NS(=O)(=O)C(F)(F)F [a-25],"mortality rate against Mythimna separata, or amount of feed consumed relative to control",Mythimna separata,"100%, or the amount of feed consumed was 10% or less"
same,MEC (minimum effective concentration),Ascaridia galli,≤ 25 µM
O=C(Nc1ccc(C(F)(F)F)cc1)c1ccc(OC(F)(F)F)cc1NS(=O)(=O)C(F)(F)F [a-26],"mortality rate against Mythimna separata, or amount of feed consumed relative to control",Mythimna separata,"100%, or the amount of feed consumed was 10% or less"
same,mortality rate or growth inhibition rate,Dirofilaria immitis; fourth stage larvae (L4),at least 90%
same,mortality rate or growth inhibition rate,Dirofilaria immitis; microfilarial stage (Mf),at least 90%
COC(=O)c1cc(Cl)c(Cl)cc1NC(=O)c1ccc(C(F)(F)F)cc1NS(=O)(=O)C(F)(F)F [a-80],"mortality rate against Mythimna separata, or amount of feed consumed relative to control",Mythimna separata,"100%, or the amount of feed consumed was 10% or less"
same,clubroot formation suppression ratio against Meloidogyne incognita,Meloidogyne incognita [2],≥ 80%
